Assay results: PMC9471462, “The nematode serotonin-gated chloride channel MOD-1: A novel target for anthelmintic therapy” (The Journal of Biological Chemistry, 2022)

Columns and labels:
MOD-1 [1] = biological target: T1, MOD-1 (Caenorhabditis elegans, UniProt Q9GQ00); experiment: whole-cell patch clamp of homomeric MOD-1 expressed in BOSC-23 cells, agonist concentration-response (efficacy about […]); type: cell-based
MOD-1 [2] = biological target: T1, MOD-1; experiment: whole-cell patch clamp in BOSC-23 cells, preincubation; weak partial reduction of 5-HT peak current at […]; type: cell-based
MOD-1 [3] = biological target: T1, MOD-1; experiment: cell-based
MOD-1 [4] = biological target: T1, MOD-1; experiment: whole-cell patch clamp in BOSC-23 cells, inhibition of […] 5-HT currents after […] s preincubation; type: cell-based

T1 sequence (Q9GQ00 21-489): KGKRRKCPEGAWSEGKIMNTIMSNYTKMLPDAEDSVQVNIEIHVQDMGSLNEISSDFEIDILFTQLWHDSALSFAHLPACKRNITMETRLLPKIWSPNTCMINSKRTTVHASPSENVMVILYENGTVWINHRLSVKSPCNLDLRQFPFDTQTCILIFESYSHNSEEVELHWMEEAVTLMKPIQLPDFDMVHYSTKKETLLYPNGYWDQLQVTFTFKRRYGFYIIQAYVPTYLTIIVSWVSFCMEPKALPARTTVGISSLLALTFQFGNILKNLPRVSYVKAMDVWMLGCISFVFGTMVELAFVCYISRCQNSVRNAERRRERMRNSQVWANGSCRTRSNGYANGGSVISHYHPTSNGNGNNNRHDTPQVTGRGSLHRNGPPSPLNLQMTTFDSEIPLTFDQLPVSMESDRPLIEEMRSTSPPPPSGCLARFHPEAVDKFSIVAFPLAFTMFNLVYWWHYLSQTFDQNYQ

## NCCc1c[nH]c2ccccc12 [Tryp, tryptamine]
MOD-1 [1]
  EC50: 47 ± 11 µM

## O=C(O)C1=CCNCC1 [isoguvacine]
MOD-1 [2]
  inhibition at 1000 µM: 23 ± 14%

## C1CNCCN1 [PZE, piperazine]
MOD-1 [3]
  IC50: 113 ± 29 µM

## NCc1cc(=O)[nH]o1 [muscimol]
MOD-1 [4]
  IC50: 249 ± 160 µM
